Measured values taken from the supplement of paper PMC10307832.

Experiments:
Assay in all cases: relative viability (nuclei count vs DMSO), 5 days (fraction); higher = more cells survive
Bleomycin + Vorinostat = compound: CC1=C(N=C(N=C1N)[C@H](CC(=O)N)NC[C@@H](C(=O)N)N)C(=O)N[C@@H]([C@H](C2=CN=CN2)OC3C(C(C(C(O3)CO)O)O)OC4C(C(C(C(O4)CO)O)OC(=O)N)O)C(=O)N[C@H](C)[C@H]([C@H](C)C(=O)N[C@@H]([C@@H](C)O)C(=O)NCCC5=NC(=CS5)C6=NC(=CS6)C(=O)NCCC[S+](C)C)O [Bleomycin] + O=C(CCCCCCC(=O)Nc1ccccc1)NO [Vorinostat] (partner 1 µM); details: main component drawn
How it was run: (§1)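 Each reported value is a median over duplicate plates. It expresses relative viability: treated-well nuclei count divided by vehicle-well nuclei count. Lung cancer cell lines in 1536-well plates were dosed by pin tool a day after seeding, alone with one drug or with a fixed anchor-drug dose plus five library-drug doses (not always all listed) in √10 steps, and nuclei were counted after 5 days.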

Etoposide + Dasatinib = compound: COc1cc([C@@H]2c3cc4c(cc3[C@@H](O[C@@H]3O[C@@H]5CO[C@@H](C)O[C@H]5[C@H](O)[C@H]3O)[C@H]3COC(=O)[C@H]23)OCO4)cc(OC)c1O [Etoposide] + Cc1nc(Nc2ncc(C(=O)Nc3c(C)cccc3Cl)s2)cc(N2CCN(CCO)CC2)n1 [Dasatinib] (partner 0.075 µM)
How it was run: as §1

Etoposide + Decitabine = compound: COc1cc([C@@H]2c3cc4c(cc3[C@@H](O[C@@H]3O[C@@H]5CO[C@@H](C)O[C@H]5[C@H](O)[C@H]3O)[C@H]3COC(=O)[C@H]23)OCO4)cc(OC)c1O [Etoposide] + Nc1ncn([C@H]2C[C@H](O)[C@@H](CO)O2)c(=O)n1 [Decitabine] (partner 2 µM)
How it was run: as §1

Etoposide + Vorinostat = compound: COc1cc([C@@H]2c3cc4c(cc3[C@@H](O[C@@H]3O[C@@H]5CO[C@@H](C)O[C@H]5[C@H](O)[C@H]3O)[C@H]3COC(=O)[C@H]23)OCO4)cc(OC)c1O [Etoposide] + O=C(CCCCCCC(=O)Nc1ccccc1)NO [Vorinostat] (partner 1 µM)
How it was run: as §1

Cell Line | relative viability (Bleomycin + Vorinostat; first compound 0.01 µM) | relative viability (Bleomycin + Vorinostat; first compound 0.03162 µM) | relative viability (Bleomycin + Vorinostat; first compound 0.1 µM) | relative viability (Bleomycin + Vorinostat; first compound 0.3162 µM) | relative viability (Bleomycin + Vorinostat; first compound 1 µM) | relative viability (Etoposide + Dasatinib; first compound 0.01 µM) | relative viability (Etoposide + Dasatinib; first compound 0.03162 µM) | relative viability (Etoposide + Dasatinib; first compound 0.1 µM) | relative viability (Etoposide + Dasatinib; first compound 0.3162 µM) | relative viability (Etoposide + Dasatinib; first compound 1 µM) | relative viability (Etoposide + Decitabine; first compound 0.01 µM) | relative viability (Etoposide + Decitabine; first compound 0.03162 µM) | relative viability (Etoposide + Decitabine; first compound 0.1 µM) | relative viability (Etoposide + Decitabine; first compound 0.3162 µM) | relative viability (Etoposide + Decitabine; first compound 1 µM) | relative viability (Etoposide + Vorinostat; first compound 0.01 µM) | relative viability (Etoposide + Vorinostat; first compound 0.03162 µM) | relative viability (Etoposide + Vorinostat; first compound 0.1 µM) | relative viability (Etoposide + Vorinostat; first compound 0.3162 µM) | relative viability (Etoposide + Vorinostat; first compound 1 µM)
NCI-H838 | 0.571 | 0.41 | 0.274 | 0.267 | 0.265 | 0.338 | 0.295 | 0.219 | 0.271 | 0.285 | 0.445 | 0.487 | 0.49 | 0.367 | 0.248 | 0.74 | 0.67 | 0.69 | 0.538 | 0.267
NCI-H2126 | 0.785 | 0.692 | 0.771 | 0.442 | 0.5 | 0.668 | 0.568 | 0.434 | 0.485 | 0.244 | 0.584 | 0.636 | 0.486 | 0.476 | 0.323 | 0.707 | 0.911 | 0.512 | 0.603 | 0.227
BEN | 0.63 | 0.609 | 0.481 | 0.531 | 0.497 | 0.353 | 0.416 |  | 0.304 | 0.351 | 0.742 | 0.769 |  | 0.692 | 0.476 | 0.542 | 0.722 |  | 0.559 | 0.616
LCLC-103H | 0.678 | 0.625 | 0.704 | 0.654 | 0.417 | 0.466 | 0.482 | 0.417 | 0.546 | 0.42 | 0.763 | 0.835 | 0.766 | 0.71 | 0.599 | 0.745 | 0.94 | 0.663 | 0.672 | 0.575
EKVX | 0.724 | 0.611 | 0.607 | 0.366 | 0.411 | 0.619 | 0.529 | 0.354 | 0.37 | 0.282 | 0.281 | 0.351 | 0.282 | 0.31 | 0.229 | 0.543 | 0.746 | 0.512 | 0.444 | 0.253
LXF-289 | 0.723 | 0.718 | 0.614 | 0.331 | 0.167 | 0.209 | 0.217 | 0.231 | 0.206 | 0.0795 | 0.378 | 0.383 | 0.306 | 0.307 | 0.194 | 0.763 | 0.744 | 0.953 | 0.547 | 0.136
ABC-1 | 1.24 | 1.28 | 1.07 | 0.684 | 0.579 | 0.535 | 0.597 | 0.336 | 0.248 | 0.207 | 1.08 | 0.939 | 0.62 | 0.619 | 0.52 | 1.07 | 1.57 | 0.571 | 0.55 | 0.223
NCI-H661 | 0.777 | 0.708 | 0.565 | 0.376 | 0.346 | 0.787 | 1.02 | 0.671 | 0.586 | 0.306 | 0.558 | 0.671 | 0.477 | 0.46 | 0.343 | 0.759 | 0.841 | 0.706 | 0.476 | 0.382
NCI-H1650 | 0.36 | 0.241 | 0.22 | 0.146 | 0.169 | 0.302 | 0.381 | 0.315 | 0.211 | 0.127 | 0.346 | 0.314 | 0.355 | 0.195 | 0.182 | 0.428 | 0.518 | 0.518 | 0.229 | 0.219
NCI-H2085 | 0.777 | 0.721 | 0.679 | 0.378 | 0.386 | 0.219 | 0.241 | 0.226 | 0.23 | 0.197 | 0.609 | 0.573 | 0.484 | 0.373 | 0.374 | 0.762 | 0.809 | 0.635 | 0.75 | 0.301
NCI-H1793 | 0.714 | 0.647 | 0.525 | 0.215 | 0.141 | 0.402 | 0.348 |  | 0.419 | 0.214 |  | 0.497 | 0.454 | 0.345 | 0.236 |  | 0.934 | 0.353 | 0.427 | 0.151
LC-2-ad | 0.62 | 0.609 | 0.466 | 0.236 | 0.2 | 0.546 | 0.612 | 0.451 | 0.244 | 0.142 | 0.778 | 0.682 | 0.922 | 0.741 | 0.566 | 0.687 | 0.736 | 0.69 | 0.459 | 0.245
COR-L 105 | 0.716 | 0.719 | 0.617 | 0.435 | 0.486 | 0.3 | 0.345 | 0.273 | 0.328 | 0.293 | 0.616 | 0.613 | 0.567 | 0.605 | 0.569 | 1.09 | 0.856 | 0.731 | 0.727 | 0.734
NCI-H1355 | 0.599 | 0.627 | 0.676 | 0.325 | 0.207 | 0.673 | 0.692 | 0.376 | 0.622 | 0.251 | 0.362 | 0.384 | 0.363 | 0.279 | 0.287 | 0.635 | 0.687 | 0.392 | 0.461 | 0.272
H3255 | 0.737 | 0.891 | 0.538 | 0.682 | 0.363 | 0.424 | 0.367 | 0.345 | 0.306 | 0.274 | 0.547 | 0.94 | 0.417 | 0.474 | 0.318 | 0.788 | 0.774 | 0.458 | 0.278 | 0.314
